pEC50: −log10 of the molar value.

The assay has as its target T1, human M4 muscarinic acetylcholine receptor (Homo sapiens, UniProt P08173).
T1 construct: expressed in transfected cells; host or cells: CHO-K1
T1 sequence (P08173 1-479): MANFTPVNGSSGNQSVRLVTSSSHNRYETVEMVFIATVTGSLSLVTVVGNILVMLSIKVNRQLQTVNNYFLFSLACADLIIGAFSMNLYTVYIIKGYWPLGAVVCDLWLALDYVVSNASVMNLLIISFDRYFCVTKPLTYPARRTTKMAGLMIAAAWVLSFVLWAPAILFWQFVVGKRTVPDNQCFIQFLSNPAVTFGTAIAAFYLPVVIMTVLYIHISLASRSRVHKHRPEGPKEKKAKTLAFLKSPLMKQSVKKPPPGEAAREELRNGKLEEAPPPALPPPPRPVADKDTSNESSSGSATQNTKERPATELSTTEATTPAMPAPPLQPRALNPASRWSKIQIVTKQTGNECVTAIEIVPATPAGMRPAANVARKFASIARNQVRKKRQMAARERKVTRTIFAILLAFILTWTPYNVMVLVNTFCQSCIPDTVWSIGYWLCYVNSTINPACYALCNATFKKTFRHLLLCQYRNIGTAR
As to the kind of experiment: human FLIPR-based M4 PAM assay (Ca2+ mobilization, CHO-K1 cells with human M4 receptor and Gαqi5). It counts as cell-based. The following applies: acetylcholine at 20% of maximum response, read-out: M4 PAM IP. The gist of the method: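 CHO-K1 cells stably expressing human M4 and chimeric Gαqi5 were dye-loaded ~1 h at 37 °C and read for Ca2+ fluorescence. Compound followed by acetylcholine at an EC20 (sometimes an EC70 third addition); inflection point from a 4-parameter logistic fit.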
With `CCc1cc2c(nc1N1CCC(Oc3ccc(OC)nc3)CC1)CNC2=O` [Example 228, 3-Ethyl-2-(4-((6-methoxypyridin-3-yl)oxy)piperidin-1-yl)-6,7-dihydro-5H-pyrrolo[3,4-b]pyridin-5-one], the pEC50 is 7.07.
For the molecule `CCc1cc2c(nc1N1CCC(OCC3(C)CC3)CC1)CNC2=O` [Example 229, 3-ethyl-2-(4-((1-methylcyclopropyl)methoxy)piperidin-1-yl)-6,7-dihydro-5H-pyrrolo[3,4-b]pyridin-5-one], the pEC50 is 7.44.
Under `CCc1c(C)c(N2CCC(Oc3ccc(OC)nc3)CC2)nc2c1C(=O)NC2` [Example 229A, 4-ethyl-2-(4-((6-methoxypyridin-3-yl)oxy)piperidin-1-yl)-3-methyl-6,7-dihydro-5H-pyrrolo[3,4-b]pyridin-5-one] stands 6.22.
Regarding `COc1ccc(OC2CCN(c3nc4c(cc3C(F)(F)F)C(=O)NC4)CC2)cn1` [Example 230, 2-(4-((6-Methoxypyridin-3-yl)oxy)piperidin-1-yl)-3-(trifluoromethyl)-6,7-dihydro-5H-pyrrolo[3,4-b]pyridin-5-one], the pEC50 was 5.67.
Turning to `Cc1cc2c(nc1N1CCC(Oc3ccccc3)CC1)CN(CCO)C2=O` [Example 231, 6-(2-Hydroxyethyl)-3-methyl-2-(4-phenoxypiperidin-1-yl)-6,7-dihydro-5H-pyrrolo[3,4-b]pyridin-5-one], the pEC50 is 7.29.
`CCN1Cc2nc(N3CCC(Oc4ccc(OC)nc4)CC3)c(C)cc2C1=O` [Example 232, 6-Ethyl-2-(4-((6-methoxypyridin-3-yl)oxy)piperidin-1-yl)-3-methyl-6,7-dihydro-5H-pyrrolo[3,4-b]pyridin-5-one]: the pEC50 is 7.09.
With `CCC1c2nc(N3CCC(Oc4ccc(OC)nc4)CC3)c(C)cc2C(=O)N1CC` (stereo not drawn) [Example 233, 6,7-Diethyl-2-(4-((6-methoxypyridin-3-yl)oxy)piperidin-1-yl)-3-methyl-6,7-dihydro-5H-pyrrolo[3,4-b]pyridin-5-one] the figure was 6.40; with `CCOc1ccc(OC2CCN(c3nc4c(cc3C)C(=O)N[C@H]4CCO)CC2)cn1` [Example 234A, (S)-2-(4-((6-Ethoxypyridin-3-yl)ox)piperidin-1-yl)-7-(2-hydroxyethyl)-3-methyl-6,7-dihydro-5H-pyrrolo[3,4-b]pyridin-5-one], 6.42; with `COc1ccc(OC2CCN(c3nc4c(cc3C)C(=O)N(CCN(C)C)C4)CC2)cn1` [Example 235, 6-(2-(dimethylamino)ethyl)-2-(4-((6-methoxypyridin-3-yl)oxy)piperidin-1-yl)-3-methyl-6,7-dihydro-5H-pyrrolo[3,4-b]pyridin-5-one], 6.49.
Turning to `Cc1cc2c(nc1N1CCC(Oc3cccc(C#N)c3)CC1)CN(CCN(C)C)C2=O` [Example 236, 3-((1-(6-(2-(dimethylamino)ethyl)-3-methyl-5-oxo-6,7-dihydro-5H-pyrrolo[3,4-b]pyridin-2-yl)piperidin-4-yl)oxy)benzonitrile], the pEC50 was 6.50.
In the case of `Cc1cc2c(nc1N1CCC(Oc3cnc4c(c3)COC4)CC1)CN(CCO)C2=O` [Example 236A, 2-(4-((5,7-dihydrofuro[3,4-b]pyridin-3-yl)oxy)piperidin-1-yl)-6-(2-hydroxyethyl)-3-methyl-6,7-dihydro-5H-pyrrolo[3,4-b]pyridin-5-one], the pEC50 was 6.84.
With `Cc1cc2c(nc1N1CC[C@@H](Oc3ccccc3)[C@@H](F)C1)CN(CCO)C2=O` [Example 237, 2-((3S,4R)-3-fluoro-4-phenoxypiperidin-1-yl)-6-(2-hydroxyethyl)-3-methyl-6,7-dihydro-5H-pyrrolo[3,4-b]pyridin-5-one], the pEC50 is 7.17.
In the case of `COc1ccc(OC2CCN(c3nc4c(cc3C)C(=O)N(CCO)C4)CC2)cn1` [Example 238, 6-(2-hydroxyethyl)-2-(4-((6-methoxypyridin-3-yl)oxy)piperidin-1-yl)-3-methyl-6,7-dihydro-5H-pyrrolo[3,4-b]pyridin-5-one], the pEC50 is 7.31.
Regarding `Cc1cc2c(nc1N1CCC(Oc3cccc(C#N)c3)CC1)CN(CCO)C2=O` [Example 239, 3-((1-(6-(2-hydroxyethyl)-3-methyl-5-oxo-6,7-dihydro-5H-pyrrolo[3,4-b]pyridin-2-yl)piperidin-4-yl)oxy)benzonitrile], the pEC50 was 7.44.
As to `Cc1cc2c(nc1N1CCC(Oc3ccc4c(cnn4C)c3)CC1)CN(CCO)C2=O` [Example 239A, 6-(2-hydroxyethyl)-3-methyl-2-(4-((1-methyl-1H-indazol-5-yl)oxy)piperidin-1-yl)-6,7-dihydro-5H-pyrrolo[3,4-b]pyridin-5-one], the pEC50 is 7.07.
On to `Cc1cc2c(nc1N1CCC(Oc3ccccc3)CC1)CN(C)C2=O` [Example 240, 3,6-dimethyl-2-(4-phenoxypiperidin-1-yl)-6,7-dihydro-5H-pyrrolo[3,4-b]pyridin-5-one], for which the pEC50 was 7.40.
Under `CCc1cc2c(nc1N1CC[C@@H](Oc3ccc4c(cnn4C)c3)[C@@H](F)C1)CN(CCO)C2=O` [Example 240A, 3-ethyl-2-((3S,4R)-3-fluoro-4-((1-methyl-1H-indazol-5-yl)oxy)piperidin-1-yl)-6-(2-hydroxyethyl)-6,7-dihydro-5H-pyrrolo[3,4-b]pyridin-5-one] stands 6.90.
Under `Cc1cc2c(nc1N1CC[C@@H](Oc3ccccc3)[C@@H](F)C1)CN(C)C2=O` [Example 241, 2-((3S,4R)-3-fluoro-4-phenoxypiperidin-1-yl)-3,6-dimethyl-6,7-dihydro-5H-pyrrolo[3,4-b]pyridin-5-one] stands 7.66.
On to `Cc1cc2c(nc1N1CC[C@@H](Oc3ccc4c(cnn4C)c3)[C@H](F)C1)CN(CCO)C2=O` [Example 241A, 2-((3R,4R)-3-fluoro-4-((1-methyl-1H-indazol-5-yl)oxy)piperidin-1-yl)-6-(2-hydroxyethyl)-3-methyl-6,7-dihydro-5H-pyrrolo[3,4-b]pyridin-5-one], for which the pEC50 is 7.03.
With `CCN1Cc2nc(N3CCC(Oc4cccc(C#N)c4)CC3)c(C)cc2C1=O` [Example 242, 3-((1-(6-ethyl-3-methyl-5-oxo-6,7-dihydro-5H-pyrrolo[3,4-b]pyridin-2-yl)piperidin-4-yl)oxy)benzonitrile] the figure was 7.13; with `CCN1Cc2nc(N3CCC(Oc4ccccc4)CC3)c(C)cc2C1=O` [Example 243, 6-ethyl-3-methyl-2-(4-phenoxypiperidin-1-yl)-6,7-dihydro-5H-pyrrolo[3,4-b]pyridin-5-one], 7.14.
With `CCN1Cc2nc(N3CC[C@@H](Oc4ccccc4)[C@@H](F)C3)c(C)cc2C1=O` [Example 244, 6-ethyl-2-((3S,4R)-3-fluoro-4-phenoxypiperidin-1-yl)-3-methyl-6,7-dihydro-5H-pyrrolo[3,4-b]pyridin-5-one], the pEC50 is 7.49.
With `CCN1Cc2nc(N3CCC(Oc4ccc5c(c4)COC5)CC3)c(C)cc2C1=O` [Example 244A, 2-(4-((1,3-dihydro-2-benzofuran-5-yl)oxy)piperidin-1-yl)-6-ethyl-3-methyl-6,7-dihydro-5H-pyrrolo[3,4-b]pyridin-5-one] the figure was 7.55; with `COc1ccc(OC2CCN(c3nc4c(cc3C)C(=O)N(C(C)C)C4)CC2)cn1` [Example 245, 6-isopropyl-2-(4-((6-methoxypyridin-3-yl)oxy)piperidin-1-yl)-3-methyl-6,7-dihydro-5H-pyrrolo[3,4-b]pyridin-5-one], 7.12; with `Cc1cc2c(nc1N1CCC(Oc3cccc(C#N)c3)CC1)CN(C(C)C)C2=O` [Example 246, 3-((1-(6-isopropyl-3-methyl-5-oxo-6,7-dihydro-5H-pyrrolo[3,4-b]pyridin-2-yl)piperidin-4-yl)oxy)benzonitrile], 6.90.
Under `Cc1cc2c(nc1N1CCC(Oc3ccccc3)CC1)CN(C(C)C)C2=O` [Example 247, 6-isopropyl-3-methyl-2-(4-phenoxypiperidin-1-yl)-6,7-dihydro-5H-pyrrolo[3,4-b]pyridin-5-one] stands 6.86; under `Cc1cc2c(nc1N1CC[C@@H](Oc3ccccc3)[C@@H](F)C1)CN(C(C)C)C2=O` [Example 248, 2-((3S,4R)-3-fluoro-4-phenoxypiperidin-1-yl)-6-isopropyl-3-methyl-6,7-dihydro-5H-pyrrolo[3,4-b]pyridin-5-one], 7.06.
With `Cc1cc2c(nc1N1CCC(Oc3cccc(C#N)c3)CC1)CN(C1CC1)C2=O` [Example 249, 3-((1-(6-cyclopropyl-3-methyl-5-oxo-6,7-dihydro-5H-pyrrolo[3,4-b]pyridin-2-yl)piperidin-4-yl)oxy)benzonitrile], the pEC50 is 7.49.
On to `Cc1cc2c(nc1N1CCC(Oc3ccccc3)CC1)CN(C1CC1)C2=O` [Example 250, 6-cyclopropyl-3-methyl-2-(4-phenoxypiperidin-1-yl)-6,7-dihydro-5H-pyrrolo[3,4-b]pyridin-5-one], for which the pEC50 is 6.83.
With `COc1ccc(OC2CCN(c3nc4c(cc3C)C(=O)N(CC3COC3)C4)CC2)cn1` [Example 250A, 2-(4-((6-methoxypyridin-3-yl)oxy)piperidin-1-yl)-3-methyl-6-(oxetan-3-ylmethyl)-6,7-dihydro-5H-pyrrolo[3,4-b]pyridin-5-one] the figure was 7.15.

For the origin of these results see patent publication US10329289B2, “6,7-dihydro-5H-pyrrolo[3,4-B]pyridin-5-one allosteric modulators of the M4 muscarinic acetylcholine receptor” (Merck Sharp & Dohme Corp., priority 2015, dated 2019).
